{"source": "patent US11987556B2", "about": "“Dual-functional compounds and methods of use” (BIOFRONT THERAPEUTICS (BEIJING) CO., LTD., priority 2020, dated 2024)", "key": {"human recombinant PDE4A": {"biological_target": "human recombinant PDE4A (Homo sapiens (Human), UniProt P27815)", "sequence (P27815 other isoform, or with tags, fused parts or gaps isoform P27815-4)": "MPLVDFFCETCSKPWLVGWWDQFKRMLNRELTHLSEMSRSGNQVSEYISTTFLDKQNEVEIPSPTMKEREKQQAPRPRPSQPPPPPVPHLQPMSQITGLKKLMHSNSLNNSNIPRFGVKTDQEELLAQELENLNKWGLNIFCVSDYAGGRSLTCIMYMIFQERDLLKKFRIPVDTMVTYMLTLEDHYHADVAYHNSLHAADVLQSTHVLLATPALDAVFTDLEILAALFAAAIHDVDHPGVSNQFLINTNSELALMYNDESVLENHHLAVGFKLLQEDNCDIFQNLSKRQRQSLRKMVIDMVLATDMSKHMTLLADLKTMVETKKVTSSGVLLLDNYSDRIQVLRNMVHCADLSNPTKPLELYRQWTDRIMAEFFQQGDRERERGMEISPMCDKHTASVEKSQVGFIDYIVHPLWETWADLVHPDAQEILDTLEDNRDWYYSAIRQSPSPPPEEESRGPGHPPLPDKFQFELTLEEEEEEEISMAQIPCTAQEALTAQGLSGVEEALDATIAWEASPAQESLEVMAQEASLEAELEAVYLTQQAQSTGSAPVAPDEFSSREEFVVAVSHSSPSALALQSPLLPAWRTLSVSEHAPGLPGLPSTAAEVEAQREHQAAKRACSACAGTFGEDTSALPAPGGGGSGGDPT", "assay": "PDE fluorescence polarization assay (BPS Bioscience kit), PDE4A", "type": "biochemical", "conditions": "FAM-cAMP substrate, 1 hr at room temperature; read-out: IC50 for inhibiting PDE4A", "description": "(§1) The inhibition of PDE4 (e.g., PDE4A, PDE4C) activity by the compounds (e.g., compound-1, compound-2, compound-3, compound-4, compound-5, and compound-6) are monitored using the PDE fluorescence polarization assay kits from BPS Bioscience (San Diego, USA) following the provided procedure. This assay is based on the selective binding of the fluorescent dye FAM-labelled AMP generated by the PDEs from the FAM-cAMP to its binding beads.\n(§2) Briefly, compounds (2.5 ul of different concentrations diluted in the assay buffer) were mixed with 12.5 uL of the FAM-cAMP substrate (200 nM in the assay buffer) in a 384-well plate, 10 ul of the human recombinant PDE4A (BPS, Catalog #60340) or PDE4C (BPS, Catalog #60384) was added. The plate was incubated for 1 hr at room temperature. 50 ul of the binding agent for FAM-AMP was added. The mixture was incubated at room temperature for 20 min. The amount of binding agent bound FAM-AMP was measured by the fluorescence polarization method on the Envision spectrometer. The potency (IC50 value, Table1) of exemplified compounds was calculated from the dose-response curve using the 4-parameter non-linear regression fitting routine."}, "human recombinant PDE4C": {"biological_target": "human recombinant PDE4C (Homo sapiens (Human), UniProt Q08493)", "sequence (Q08493 whole entry)": "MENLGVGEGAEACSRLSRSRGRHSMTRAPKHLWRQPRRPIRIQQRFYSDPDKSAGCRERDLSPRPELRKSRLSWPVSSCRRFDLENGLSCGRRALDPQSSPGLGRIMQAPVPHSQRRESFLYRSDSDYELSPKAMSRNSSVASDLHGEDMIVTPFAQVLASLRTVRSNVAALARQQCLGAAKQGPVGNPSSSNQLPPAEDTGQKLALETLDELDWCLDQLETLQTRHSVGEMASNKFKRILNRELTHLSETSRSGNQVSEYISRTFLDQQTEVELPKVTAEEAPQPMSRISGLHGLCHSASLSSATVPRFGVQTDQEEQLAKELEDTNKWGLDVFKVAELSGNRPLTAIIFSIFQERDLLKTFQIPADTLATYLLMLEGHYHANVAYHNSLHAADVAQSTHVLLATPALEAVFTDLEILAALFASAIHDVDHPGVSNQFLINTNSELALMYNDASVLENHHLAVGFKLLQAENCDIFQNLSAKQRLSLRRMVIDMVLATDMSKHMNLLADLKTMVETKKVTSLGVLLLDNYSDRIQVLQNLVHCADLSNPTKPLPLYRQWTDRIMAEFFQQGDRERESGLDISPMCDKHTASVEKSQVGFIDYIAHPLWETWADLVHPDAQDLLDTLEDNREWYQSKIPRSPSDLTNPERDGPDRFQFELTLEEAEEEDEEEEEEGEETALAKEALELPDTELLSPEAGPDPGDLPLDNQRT", "assay": "PDE fluorescence polarization assay (BPS Bioscience kit), PDE4C", "type": "biochemical", "conditions": "FAM-cAMP substrate, 1 hr at room temperature; read-out: IC50 for inhibiting PDE4C", "description": "as §1, §2"}, "[1]": {"assay": "Blood level of compound-6 produced after oral dosing of compound-1 in mice", "type": "in vivo", "conditions": "5 mg/kg", "description": "The exemplified compound-1 (formulated at 0.5 mg/mL in 0.5% carboxymethyl cellulose (CMC)/0.25% Tween-80 in water as a suspension) was dosed orally to 4 mice at 5 mg/kg. […] Approximately 200 ng/mL of compound-6 was detected in the blood at 15 min. Compound-6 blood level peaked at approximately 250 ng/mL between 1 to 2 hrs, and mostly cleared to around 25 ng/mL at 6 hr. […] This kinetic profile of compound-6 blood level provides the opportunities to treat diseases that are responsive to compound-6 treatment, beyond dosing compound-6 directly, such as reducing the expected high Cmax-caused side effects from directly dosing compound-6."}}, "data": [{"smiles": "CCOc1cc([C@@H](CS(C)(=O)=O)N2C(=O)c3cccc(NC(=O)COC(=O)C(C)(C)CO[N+](=O)[O-])c3C2=O)ccc1OC", "note": "[compound-1, (S)-2-((2-(1-(3-ethoxy-4-methoxyphenyl)-2-(methylsulfonyl)ethyl)-1,3-dioxoisoindolin-4-yl)amino)-2-oxoethyl 2,2-dimethyl-3-(nitrooxy)propanoate]", "values": [{"measurement": "IC50", "setting": "human recombinant PDE4A", "value": 178, "unit": "nM"}, {"measurement": "IC50", "setting": "human recombinant PDE4C", "value": 2230, "unit": "nM"}, {"measurement": "bioactivation after oral dosing, forming metabolite compound-6", "setting": "[1]", "value": "bioactivated rapidly"}]}, {"smiles": "CCOc1cc([C@@H](CS(C)(=O)=O)N2C(=O)c3cccc(NC(=O)COC(=O)C(C)(CO[N+](=O)[O-])CO[N+](=O)[O-])c3C2=O)ccc1OC", "note": "[compound-2, (S)-2-((2-(1-(3-ethoxy-4-methoxyphenyl)-2-(methylsulfonyl)ethyl)-1,3-dioxoisoindolin-4-yl)amino)-2-oxoethyl 2-methyl-3-(nitrooxy)-2-((nitrooxy)methyl)propanoate]", "values": [{"measurement": "IC50", "setting": "human recombinant PDE4A", "value": 308, "unit": "nM"}, {"measurement": "IC50", "setting": "human recombinant PDE4C", "value": 2260, "unit": "nM"}]}, {"smiles": "CCOc1cc([C@@H](CS(C)(=O)=O)N2C(=O)c3cccc(NC(=O)CNC(=O)C(C)(C)CO[N+](=O)[O-])c3C2=O)ccc1OC", "note": "[compound-3, (S)-3-((2-((2-(1-(3-ethoxy-4-methoxyphenyl)-2-(methylsulfonyl)ethyl)-1,3-dioxoisoindolin-4-yl)amino)-2-oxoethyl)amino)-2,2-dimethyl-3-oxopropyl nitrate]", "values": [{"measurement": "IC50", "setting": "human recombinant PDE4A", "value": 215, "unit": "nM"}, {"measurement": "IC50", "setting": "human recombinant PDE4C", "value": 1020, "unit": "nM"}]}, {"smiles": "CCOc1cc([C@@H](CS(C)(=O)=O)N2C(=O)c3cccc(NC(=O)CO[C@H]4CO[C@H]5[C@@H]4OC[C@H]5O[N+](=O)[O-])c3C2=O)ccc1OC", "note": "[compound-4, (3R,3aS,6S,6aR)-6-(2-((2-((S)-1-(3-ethoxy-4-methoxyphenyl)-2-(methylsulfonyl)ethyl)-1,3-dioxoisoindolin-4-yl)amino)-2-oxoethoxy)hexahydrofuro[3,2-b]furan-3-yl nitrate]", "values": [{"measurement": "IC50", "setting": "human recombinant PDE4A", "value": 710, "unit": "nM"}, {"measurement": "IC50", "setting": "human recombinant PDE4C", "value": 109, "unit": "nM"}]}, {"smiles": "CCOc1cc([C@@H](CS(C)(=O)=O)N2C(=O)c3cccc(NC(=O)CNC(=O)O[C@H]4CO[C@H]5[C@@H]4OC[C@H]5O[N+](=O)[O-])c3C2=O)ccc1OC", "note": "[compound-5, (3S,3aR,6R,6aS)-6-(nitrooxy)hexahydrofuro[3,2-b]furan-3-yl (2-((2-((S)-1-(3-ethoxy-4-methoxyphenyl)-2-(methylsulfonyl)ethyl)-1,3-dioxoisoindolin-4-yl)amino)-2-oxoethyl)carbamate]", "values": [{"measurement": "IC50", "setting": "human recombinant PDE4A", "value": 38, "unit": "nM"}, {"measurement": "IC50", "setting": "human recombinant PDE4C", "value": 826, "unit": "nM"}]}, {"smiles": "CCOc1cc([C@@H](CS(C)(=O)=O)N2C(=O)c3cccc(NC(=O)CO)c3C2=O)ccc1OC", "note": "[compound-6, N-{2-[(1S)-1-(3-ethoxy-4-methoxyphenyl)-2-methanesulfonylethyl]-1,3-dioxoisoindol-4-yl}-2-hydroxyacetamide]", "values": [{"measurement": "IC50", "setting": "human recombinant PDE4A", "value": 214, "unit": "nM"}, {"measurement": "IC50", "setting": "human recombinant PDE4C", "value": 734, "unit": "nM"}]}]}
